Data on 19 molecules can be found in patent US12454529B2, “Piperazine cyclic ureas” (SIRONAX LTD., priority 2020, dated 2025).

The experiment concerns HT-29 cells. Nature of the experiment: HT-29 cell necrosis/necroptosis inhibition (TNF-α + SMAC mimetic + zVAD-FMK; CellTiter-Glo cell viability). Format: cell-based. As to conditions: Homo sapiens. An outline of the steps: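 Necroptosis was driven by TNF-α 10 ng/ml plus SMAC mimetic 6 μM and zVAD-FMK 10 μM in serum-free medium, with compounds as a 10-point threefold titration. After 20 h at 37 °C, ATP-based luminescence was read; EC50 values are geometric means of duplicate curves.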
On the technique in general: ATP-based viability assays read luminescence as a measure of living cells.

Setting [1] is: HT-29 cells, TNF-α 10 ng/ml + SMAC mimetic 6 μM + zVAD-FMK 10 μM, 20 hours, geometric mean, 10 points in duplicate, read-out: EC50 (Cell activity; Necrosis/Necroptosis Inhibitory Activity, Compounds 143-323).
[2] abbreviates: HT-29 cells, TNF-α 10 ng/ml + SMAC mimetic 6 μM + zVAD-FMK 10 μM, 20 hours, geometric mean, 10 points in duplicate, read-out: EC50 (Cell activity; Necrosis/Necroptosis Inhibitory Activity, Compounds 1-142).
Setting [3] is: HT-29, 20 h, read-out: EC50 (Cell activity; Necrosis/Necroptosis Inhibitory Activity, Compounds 1-142).

Like-named read-outs stand apart in the source and are kept apart here.

What is called EC50 is the concentration needed to bring the measured effect to its halfway point. In the case of `Cc1nc(C)n(-c2nc(N3CCN(C(=O)N4N=CC[C@@H]4c4cnc(C)s4)CC3)ncc2F)n1` [Compound 239, (R)-(4-(4-(3,5-dimethyl-1H-1,2,4-triazol-1-yl)-5-fluoropyrimidinyl)piperazin-1-yl)(5-(2-methylthiazol-5-yl)-4,5-dihydro-1H-pyrazol-1-yl)methanone], the half-maximal effective concentration (EC50) under setting [1] fell in the range of 1000 to 10000 nM. Regarding `Cc1nn(-c2nc(N3CCN(C(=O)N4N=CC[C@H]4c4cc(F)cc(C#N)c4)CC3)ncc2F)c(C)c1N` [Compound 131, (S)-3-(1-(4-(4-(4-amino-3,5-dimethyl-1H-pyrazol-1-yl)-5-fluoropyrimidin-2-yl)piperazine-1-carbonyl)-4,5-dihydro-1H-pyrazol-5-yl)-5-fluorobenzonitrile], the EC50 under setting [2] lay in the range of 0.1 to 100 nM. On to `Cn1nc(CO)nc1-c1nc(N2CCN(C(=O)N3N=CC[C@H]3c3cncc(F)c3)CC2)ncc1F` [Compound 174, (S)-(4-(5-fluoro-4-(3-(hydroxymethyl)-1-methyl-1H-1,2,4-triazol-5-yl)pyrimidin-2-yl)piperazin-1-yl)(5-(5-fluoropyridin-3-yl)-4,5-dihydro-1H-pyrazol-1-yl)methanone], for which the EC50 under setting [1] was in the range of 0.1 to 100 nM.

For `O=C(N1CCN(c2ncc(F)c(-c3cnn(CCO)c3)n2)CC1)N1N=CC[C@H]1c1cc(F)cc(F)c1` [Compound 60, (S)-(5-(3,5-difluorophenyl)-4,5-dihydro-1H-pyrazol-1-yl)(4-(5-fluoro-4-(1-(2-hydroxyethyl)-1H-pyrazol-4-yl)pyrimidin-2-yl)piperazin-1-yl)methanone], the EC50 under setting [2] lay in the range of 0.1 to 100 nM. As for `Cc1nc(C)n(-c2nc(N3CCN(C(=O)N4N=CCC4c4cnc(C)s4)CC3)ncc2Cl)n1` (stereo not shown) [Compound 223, (4-(5-chloro-4-(3,5-dimethyl-1H-1,2,4-triazol-1-yl)pyrimidin-2-yl)piperazin-1-yl)(5-(2-methylthiazol-5-yl)-4,5-dihydro-1H-pyrazol-1-yl)methanone], the EC50 under setting [1] lay within 0.1 to 100 nM. On to `N#Cc1cc(F)cc([C@@H]2CC=NN2C(=O)N2CCN(c3ncc(F)c(-n4cnc(Cl)n4)n3)CC2)c1` [Compound 126, (S)-3-(1-(4-(4-(3-chloro-1H-1,2,4-triazol-1-yl)-5-fluoropyrimidinyl)piperazine-1-carbonyl)-4,5-dihydro-1H-pyrazol-5-yl)-5-fluorobenzonitrile], for which the EC50 under setting [2] was 0.1 to 100 nM. With `Cc1cc(C(F)(F)F)nn1-c1nc(N2CCN(C(=O)N3N=CC[C@H]3c3cc(F)cc(F)c3)CC2)ncc1F` [Compound 196, (S)-(5-(3,5-difluorophenyl)-4,5-dihydro-1H-pyrazol-1-yl)(4-(5-fluoro-4-(5-methyl-3-(trifluoromethyl)-1H-pyrazol-1-yl)pyrimidin-2-yl)piperazin-1-yl)methanone], the EC50 under setting [1] was 0.1 to 100 nM. The same measure, in the same setting: with `Cc1nc(C(F)F)nn1-c1nc(N2CCN(C(=O)N3N=CC[C@H]3c3cc(F)cc(C#N)c3)CC2)ncc1F` [Compound 245, (S)-3-(1-(4-(4-(3-(difluoromethyl)-5-methyl-1H-1,2,4-triazol-1-yl)-5-fluoropyrimidinyl)piperazine-1-carbonyl)-4,5-dihydro-1H-pyrazol-5-yl)-5-fluorobenzonitrile] the figure was 0.1 to 100 nM. As for `Cc1nn(CC(N)=O)nc1-c1nc(N2CCN(C(=O)N3N=CC[C@H]3c3cc(F)cc(F)c3)CC2)ncc1F` [Compound 32, (S)-2-(4-(2-(4-(5-(3,5-difluorophenyl)-4,5-dihydro-1H-pyrazole-1-carbonyl)piperazin-1-yl)-5-fluoropyrimidin-4-yl)-5-methyl-2H-1,2,3-triazol-2-yl)acetamide], the EC50 under setting [2] lay within 0.1 to 100 nM. Take `O=C(N1CCN(c2nccc(-c3nnn[nH]3)n2)CC1)N1N=CC[C@H]1c1cc(F)cc(F)c1` [Compound 4, (S)-(4-(4-(1H-tetrazol-5-yl)pyrimidin-2-yl)piperazin-1-yl)(5-(3,5-difluorophenyl)-4,5-dihydro-1H-pyrazol-1-yl)methanone]: under setting [2], the EC50 was in the range of 0.1 to 100 nM. `N#Cc1cc(F)cc([C@@H]2CC=NN2C(=O)N2CCN(c3ncc(F)c(-c4cc(O)nc(O)n4)n3)CC2)c1` [Compound 50, (S)-3-fluoro-5-(1-(4-(5-fluoro-2′,6′-dihydroxy-[4,4′-bipyrimidin]-2-yl)piperazine-1-carbonyl)-4,5-dihydro-1H-pyrazol-5-yl)benzonitrile]: the EC50 under setting [2] lay within 0.1 to 100 nM.

Take `Cc1cnn(C)c1-c1sc(N2CCN(C(=O)N3N=CC[C@H]3c3cc(F)cc(F)c3)CC2)nc1Cl` [Compound 185, (S)-(4-(4-chloro-5-(1,4-dimethyl-1H-pyrazol-5-yl)thiazol-2-yl)piperazin-1-yl)(5-(3,5-difluorophenyl)-4,5-dihydro-1H-pyrazol-1-yl)methanone]: under setting [1], the EC50 is 0.1 to 100 nM.

In the case of `O=C(N1CCN(c2ncc(F)c(-n3cnc(Cl)n3)n2)CC1)N1N=CC[C@H]1c1cc(F)cc(F)c1` [Compound 24, (S)-(4-(4-(3-chloro-1H-1,2,4-triazol-1-yl)-5-fluoropyrimidin-2-yl)piperazin-1-yl)(5-(3,5-difluorophenyl)-4,5-dihydro-1H-pyrazol-1-yl)methanone], the EC50 under setting [2] is 0.1 to 100 nM. For `Cc1nn(CC(N)=O)cc1-c1nc(N2CCN(C(=O)N3N=CC[C@H]3c3cc(F)cc(F)c3)CC2)ncc1F` [Compound 18, (S)-2-(4-(2-(4-(5-(3,5-difluorophenyl)-4,5-dihydro-1H-pyrazole-1-carbonyl)piperazin-1-yl)-5-fluoropyrimidin-4-yl)-3-methyl-1H-pyrazol-1-yl)acetamide], under setting [2], the concentration for a half-maximal effect (EC50) fell in the range of 0.1 to 100 nM. Consider `Cc1nc(C)n(-c2ncc(F)c(N3CCN(C(=O)N4N=CCC4c4ncccc4Cl)CC3)n2)n1` (stereo not shown) [Compound 263, (5-(3-chloropyridin-2-yl)-4,5-dihydro-1H-pyrazol-1-yl)(4-(2-(3,5-dimethyl-1H-1,2,4-triazol-1-yl)-5-fluoropyrimidin-4-yl)piperazin-1-yl)methanone], for which the EC50 under setting [1] was in the range of 100 to 1000 nM.

Turning to `Cc1nn(CC#N)c(C)c1-c1nc(N2CCN(C(=O)N3N=CC[C@H]3c3cc(F)cc(C#N)c3)CC2)ncc1F` [Compound 136, (S)-3-(1-(4-(4-(1-(cyanomethyl)-3,5-dimethyl-1H-pyrazol-4-yl)-5-fluoropyrimidin-2-yl)piperazine-1-carbonyl)-4,5-dihydro-1H-pyrazol-5-yl)-5-fluorobenzonitrile], the EC50 under setting [3] lay within 0.1 to 100 nM.

With `Cc1nn(C)cc1-c1nc(N2CCN(C(=O)N3N=CC[C@H]3c3cc(F)cc(F)c3)CC2)ncc1F` [Compound 14, (S)-(5-(3,5-difluorophenyl)-4,5-dihydro-1H-pyrazol-1-yl)(4-(4-(1,3-dimethyl-1H-pyrazol-4-yl)-5-fluoropyrimidin-2-yl)piperazin-1-yl)methanone], the EC50 under setting [2] lay within 0.1 to 100 nM. Still for that read-out and setting: in the case of `Cn1ncc(C#N)c1-c1nc(N2CCN(C(=O)N3N=CC[C@H]3c3cc(F)cc(C#N)c3)CC2)ncc1F` [Compound 67, (S)-5-(2-(4-(5-(3-cyano-5-fluorophenyl)-4,5-dihydro-1H-pyrazole-1-carbonyl)piperazin-1-yl)-5-fluoropyrimidin-4-yl)-1-methyl-1H-pyrazole-4-carbonitrile] it was 0.1 to 100 nM. Turning to `Cc1nn(C[C@H]2CO2)c(C)c1-c1nc(N2CCN(C(=O)N3N=CC[C@H]3c3cc(F)cc(C#N)c3)CC2)ncc1F` [Compound 134, 3-((S)-1-(4-(4-(3,5-dimethyl-1-(((S)-oxiran-2-yl)methyl)-1H-pyrazol-4-yl)-5-fluoropyrimidin-2-yl)piperazine-1-carbonyl)-4,5-dihydro-1H-pyrazol-5-yl)-5-fluorobenzonitrile], the 50% effective concentration (EC50) under setting [3] lay within 0.1 to 100 nM.
